Measurements from patent US20210371353A1, “FERTILIZER COMPOSITIONS AND PLANTS CONTAINING PROTOCATECHUIC ACID, AND USES THEREOF” (priority 2020, published 2021).
“Also recorded” adds a separate entry of the source.

Columns and labels:
lettuce [1] = assay: Size of roots and leaves of harvested lettuce; format: in vivo; conditions: for Leaves (each) Width: control 3-5 cm; for Root (as a whole) Width: control 6 cm; for Root (as a whole) Length: control 8 cm; for Leaves (each) Length: control 20-21 cm; for Size of roots and leaves / plant growth compared with control: approximately eight weeks (two months) after sowing
Description: A commercial plant box as shown in FIG. 1A was used for the experiment. The bottom one half was filled with sandbox sand, and the top layer was filled with six inches of non-fertilized soil. The level of the soil was four inches below the top of the container. The plant box was partitioned into three sections with physical barriers in between, from the top of the soil to the bottom of the plant box, as illustrated in FIG. 1B.
A single straight line of 0.25-inch-deep trough was formed in each section. Then, lettuce seeds were placed in the trough according to the methods laid out in Table 1 below. Each section was watered daily with tap water.
Approximately eight weeks after sowing, a portion of each group was harvested, and size of the roots and leaves of the harvested lettuce was measured, as summarized in Table 3 below.

rice = conditions: had been reported; cited from earlier work
lettuce [2] = assay: Browning of harvested and cut lettuce; format: in vivo
Description: Browning of the lettuce harvested at approximately eight weeks after sowing were examined for experimental groups 2 and 3. The cut end of the stalk and the cut area on the leaves were observed. First browning appeared on the cut end six days after harvesting and cutting.

lettuce [3] = assay: Remaining lettuce observed until final harvest (wilting, size, pest holes); format: in vivo; conditions: approximately 14 weeks after sowing
red azaleas = assay: Flowering of red azaleas; format: in vivo, azalea (red bird variety); conditions: small amount of PCA crystals around the stem
Description: In one of the two azalea plants (red bird variety), small amount of PCA crystals were placed around the stem, and both were watered daily. The plant treated with PCA bloomed in three weeks, and the other plant bloomed in seven weeks.

pink azaleas = assay: Flowering and sprouting of pink azaleas; format: in vivo, pink azalea
Description: In the experimental plant, small amount of PCA crystals were placed around the stem, and both plants were watered daily.

[4] = approximately eight weeks after sowing

Structure (SMILES): O=C(O)c1ccc(O)c(O)c1 [PCA coating, protocatechuic acid]
- Shape of root and leaves compared with other groups (lettuce [1]; [4]): the root was relatively narrower, and the leaves were relatively wider and shorter; also recorded: a different shaped single root
- Leaves (each) Width (lettuce [1]; [4]): 4-7 cm
- Root (as a whole) Width (lettuce [1]; [4]): 3-5 cm
- Root (as a whole) Length (lettuce [1]; [4]): 8-11 cm
- Leaves (each) Length (lettuce [1]; [4]): 17-18 cm

Structure (SMILES): O=C(O)c1ccc(O)c(O)c1 [PCA, protocatechuic acid]
- Size of roots and leaves / plant growth compared with control (lettuce [1]): enhanced plant growth; larger root system and larger leaves than the control
- Effect on growth of some plant species, e.g., rice (rice): no effect on growth

Structure (SMILES): O=C(O)c1ccc(O)c(O)c1 [PCA crystals, protocatechuic acid]
- Size of roots and leaves / plant growth compared with control (lettuce [1]): bigger roots and leaves than the control
- Leaves (each) Width (lettuce [1]; [4]): 4-6 cm
- Root (as a whole) Width (lettuce [1]; [4]): 9 cm
- Root (as a whole) Length (lettuce [1]; [4]): 10 cm
- Leaves (each) Length (lettuce [1]; [4]): 24 cm
- Time to first browning on the cut end after harvesting and cutting (lettuce [2]; lettuce harvested approximately eight weeks after sowing): six
- Browning in the cut areas of the leaves (lettuce [2]; six days after cutting): no browning was observed; also recorded: no browning was seen where leaves were cut
- Browning on cut end of the stalk compared with control (lettuce [2]; six days after harvesting and cutting): not as thick as in the control group; also recorded: did not show thick brown covering on the stump
- Size of leaves and roots at final harvest, group 3 versus group 2 (lettuce [3]): larger and wider leaves and larger roots than experimental group 2
- Speed of flowering compared with untreated plant (red azaleas): more than twice as fast
- Time to bloom (red azaleas; watered daily, untreated plant seven weeks): three
- Blooming compared with control plant (pink azaleas; approximately five weeks after placing PCA crystals around the stem): started to bloom before the control plant did, and had more flowers blooming than the control plant
- Flowering, buds and shoots compared with control plant (pink azaleas; approximately seven weeks after placing PCA crystals, control wilted): continued to flower and had more buds and taller shoot of stems than the control
- Buds compared with control plant (pink azaleas; approximately six weeks after placing PCA crystals): had many more buds on the top yet to flower
- Overall flowering, sprouting and budding compared with control (pink azaleas; summary): flowered sooner, added sprouts sooner, and had budding that lasted longer than the control
